Reference: PubChem BioAssay AID1259407 (Chemical Carcinogenesis Research Information System (CCRIS), 2018)
The source made the active and inactive calls. How the calls were made is not given here.

Tested on: CCRIS mutagenicity, Ames/micronucleus/aberration tests
Assay: CCRIS mutagenicity studies
[1] = Test System: AMES SALMONELLA TYPHIMURIUM, Strain/Indicator: TA100, Metabolic Activation: NONE, Method: STANDARD PLATE

Q: `Nc1ccc(O)c([N+](=O)[O-])c1` was tested. Which mutagenic call (Test System: AMES SALMONELLA TYPHIMURIUM, Strain/Indicator: TA97, Metabolic Activation: HAMSTER, LIVER, S-9, AROCLOR 1254 (10%), Method: PREINCUBATION) did it give?
A: inactive; negative

Q: What about the mutagenic call (Test System: AMES SALMONELLA TYPHIMURIUM, Strain/Indicator: TA97, Metabolic Activation: NONE, Method: PREINCUBATION) of the same compound?
A: inactive; negative

Q: And the mutagenic call (Test System: AMES SALMONELLA TYPHIMURIUM, Strain/Indicator: TA97, Metabolic Activation: RAT, LIVER, S-9, AROCLOR 1254 (10%), Method: PREINCUBATION)?
A: inactive; negative

Q: And the mutagenic call (Test System: AMES SALMONELLA TYPHIMURIUM, Strain/Indicator: TA98, Metabolic Activation: HAMSTER, LIVER, S-9, AROCLOR 1254 (10%), Method: PREINCUBATION)?
A: inactive; negative

Q: And the mutagenic call (Test System: AMES SALMONELLA TYPHIMURIUM, Strain/Indicator: TA98, Metabolic Activation: NONE, Method: PREINCUBATION)?
A: active; positive

Q: What about the mutagenic call (Test System: AMES SALMONELLA TYPHIMURIUM, Strain/Indicator: TA98, Metabolic Activation: NONE, Method: STANDARD PLATE) of the same compound?
A: inactive; negative

Q: And the mutagenic call (Test System: AMES SALMONELLA TYPHIMURIUM, Strain/Indicator: TA98, Metabolic Activation: RAT, LIVER, S-9, AROCLOR 1254 (10%), Method: PREINCUBATION)?
A: inactive; negative

Q: And the mutagenic call (Test System: AMES SALMONELLA TYPHIMURIUM, Strain/Indicator: TA98, Metabolic Activation: RAT, LIVER, S-9, AROCLOR 1254, Method: STANDARD PLATE)?
A: inactive; negative

Q: What about the mutagenic call (Test System: AMES SALMONELLA TYPHIMURIUM, Strain/Indicator: TA100, Metabolic Activation: HAMSTER, LIVER, S-9, AROCLOR 1254 (10%), Method: PREINCUBATION) of the same compound?
A: inactive; negative

Q: What about the mutagenic call (Test System: AMES SALMONELLA TYPHIMURIUM, Strain/Indicator: TA100, Metabolic Activation: NONE, Method: PREINCUBATION) of the same compound?
A: inactive; negative

Q: What about the mutagenic call [1] of the same compound?
A: inactive; negative

Q: And the mutagenic call (Test System: AMES SALMONELLA TYPHIMURIUM, Strain/Indicator: TA100, Metabolic Activation: RAT, LIVER, S-9, AROCLOR 1254 (10%), Method: PREINCUBATION)?
A: inactive; negative

Q: And the mutagenic call (Test System: AMES SALMONELLA TYPHIMURIUM, Strain/Indicator: TA100, Metabolic Activation: RAT, LIVER, S-9, AROCLOR 1254, Method: STANDARD PLATE)?
A: inactive; negative

Q: And the mutagenic call (Test System: AMES SALMONELLA TYPHIMURIUM, Strain/Indicator: TA1535, Metabolic Activation: HAMSTER, LIVER, S-9, AROCLOR 1254 (10%), Method: PREINCUBATION)?
A: inactive; negative

Q: What about the mutagenic call (Test System: AMES SALMONELLA TYPHIMURIUM, Strain/Indicator: TA1535, Metabolic Activation: NONE, Method: PREINCUBATION) of the same compound?
A: inactive; negative

Q: What about the mutagenic call (Test System: AMES SALMONELLA TYPHIMURIUM, Strain/Indicator: TA1535, Metabolic Activation: NONE, Method: STANDARD PLATE) of the same compound?
A: inactive; negative

Q: What about the mutagenic call (Test System: AMES SALMONELLA TYPHIMURIUM, Strain/Indicator: TA1535, Metabolic Activation: RAT, LIVER, S-9, AROCLOR 1254 (10%), Method: PREINCUBATION) of the same compound?
A: inactive; negative

Q: What about the mutagenic call (Test System: AMES SALMONELLA TYPHIMURIUM, Strain/Indicator: TA1535, Metabolic Activation: RAT, LIVER, S-9, AROCLOR 1254, Method: STANDARD PLATE) of the same compound?
A: inactive; negative

Q: And the mutagenic call (Test System: AMES SALMONELLA TYPHIMURIUM, Strain/Indicator: TA1537, Metabolic Activation: NONE, Method: STANDARD PLATE)?
A: inactive; negative

Q: What about the mutagenic call (Test System: AMES SALMONELLA TYPHIMURIUM, Strain/Indicator: TA1537, Metabolic Activation: RAT, LIVER, S-9, AROCLOR 1254, Method: STANDARD PLATE) of the same compound?
A: inactive; negative

Q: What about the mutagenic call (Test System: AMES SALMONELLA TYPHIMURIUM, Strain/Indicator: TA1538, Metabolic Activation: NONE, Method: STANDARD PLATE) of the same compound?
A: inactive; negative

Q: What about the mutagenic call (Test System: AMES SALMONELLA TYPHIMURIUM, Strain/Indicator: TA1538, Metabolic Activation: RAT, LIVER, S-9, AROCLOR 1254, Method: STANDARD PLATE) of the same compound?
A: inactive; negative

Q: And the mutagenic call (Test System: E. COLI, Strain/Indicator: WP2 UVRA, Metabolic Activation: HAMSTER, LIVER, S-9, AROCLOR 1254, Method: STANDARD PLATE)?
A: inactive; negative

Q: What about the mutagenic call (Test System: E. COLI, Strain/Indicator: WP2 UVRA, Metabolic Activation: HAMSTER, LIVER, S-9, Method: STANDARD PLATE) of the same compound?
A: inactive; negative

Q: What about the mutagenic call (Test System: E. COLI, Strain/Indicator: WP2 UVRA, Metabolic Activation: MOUSE, LIVER, S-9, AROCLOR 1254, Method: STANDARD PLATE) of the same compound?
A: inactive; negative

Q: What about the mutagenic call (Test System: E. COLI, Strain/Indicator: WP2 UVRA, Metabolic Activation: MOUSE, LIVER, S-9, Method: STANDARD PLATE) of the same compound?
A: inactive; negative

Q: What about the mutagenic call (Test System: E. COLI, Strain/Indicator: WP2 UVRA, Metabolic Activation: NONE, Method: STANDARD PLATE) of the same compound?
A: inactive; negative

Q: And the mutagenic call (Test System: E. COLI, Strain/Indicator: WP2 UVRA, Metabolic Activation: RAT, LIVER, S-9, AROCLOR 1254, Method: STANDARD PLATE)?
A: inactive; negative

Q: What about the mutagenic call (Test System: E. COLI, Strain/Indicator: WP2 UVRA, Metabolic Activation: RAT, LIVER, S-9, Method: STANDARD PLATE) of the same compound?
A: inactive; negative

Q: And the mutagenic call (Test System: MOUSE LYMPHOMA, Strain/Indicator: L5178Y (TK+/TK-), Metabolic Activation: NONE, Method: SUSPENSION/PLATE)?
A: active; positive

Q: What about the mutagenic call (Test System: MOUSE LYMPHOMA, Strain/Indicator: L5178Y (TK+/TK-), Metabolic Activation: RAT, LIVER, S-9, AROCLOR 1254, Method: SUSPENSION/PLATE) of the same compound?
A: active; positive

Q: For `Fc1cccc2ccc3ncccc3c12`, which mutagenic call (Test System: AMES SALMONELLA TYPHIMURIUM, Strain/Indicator: TA100, Metabolic Activation: RAT, LIVER, S-9, PHENOBARBITAL AND 5,6-BENZOFLAVONE, Method: PREINCUBATION) is on record?
A: active; positive

Q: Which results are given for `CCCOS(=O)(=O)c1ccc(C)cc1`?
A: mutagenic call (End Point: IN VITRO MICRONUCLEUS, Test System: MOUSE LYMPHOMA L5178Y CELLS, Metabolic Activation: NONE): inactive; negative; positive results only at highly excessively cytotoxic doses; mutagenic call (End Point: IN VITRO MICRONUCLEUS, Test System: MOUSE LYMPHOMA L5178Y CELLS, Metabolic Activation: RAT, LIVER, S-9): inactive; negative; mutagenic call (End Point: In vitro micronucleus, Test System: Chinese Hamster Ovary (CHO-WBL) cells, Metabolic Activation: None): inactive; negative; mutagenic call [1]: active; positive; mutagenic call (Test System: AMES SALMONELLA TYPHIMURIUM, Strain/Indicator: TA100, Metabolic Activation: RAT, LIVER, S-9, Method: STANDARD PLATE): active; positive

Q: Which mutagenic call (End Point: IN VITRO MICRONUCLEUS, Test System: HUMAN T-LYMPHOCYTES, Metabolic Activation: NONE) does the source give for `CS(=O)CCCC/C(=N\OS(=O)(=O)O)S[C@@H]1O[C@H](CO)[C@@H](O)[C@H](O)[C@H]1O` (stereo partly drawn) here?
A: inactive; negative
